Results on 1 substance are retold here after patent publication US20230078425A1, “COMPOSITIONS AND METHODS FOR GENERATING SYNTHETIC LETHALITY IN TUMORS” (Engine Biosciences Pte. Ltd., priority 2021, published 2023).

The test system of this test is LS180 cells. Nature of the test: CombiGEM CRISPR/Cas9 double-knockout screen (gene A biomarker + PKMYT1), barcode LFC and GI score, LS180. It is filed as cell-based, human. The text has this:
A combinatorial genetic en masse (CombiGEM™) screen is used to validate synthetic lethal pairs identified by the computational methods described in Example 1. Methods of performing CombiGEM™ are known in the art and described in U.S. Pat. No. 9,315,806; Bari, et al. (2017) Scientific Reports 7:6993; Wong, et al (2016) PNAS 113:2544-2549, each of which are incorporated by reference in their entirety. This example provides an overview of the pooled screening method to validate predicted synthetic lethal pairs of gene A biomarkers and gene B targets.
Briefly, oligonucleotide synthesis is used to generate a library of barcoded gRNA target sequences directed to gene A biomarkers (“gene A gRNA library”) and a library of barcoded gRNA target sequences directed to gene B targets (“gene B gRNA library”). […]
The barcoded sgRNA lentiviral libraries are evaluated in Cas9-expressing cancer cell lines (e.g., HT29 and/or LS180 cell lines). […] Genomic DNA is harvested and used for quantification of the integrated barcodes using a combination of barcode amplification by PCR and sequencing by NGS. […] The barcode reads are normalized per million reads for each sample. To measure cell proliferation, barcode count ratios of normalized barcode reads were calculated as fold changes. […]

On to IGF1, for which the GI (gene interaction score = observed minus expected (gene A LFC + gene B LFC) double-knockout LFC, gene B = PKMYT1, LS180 cells) is recorded as −1.07. Besides, the “LFC (gene A * B)” value (log2 fold-change of barcode counts, double knockout of gene A biomarker and PKMYT1, Cas9-expressing LS180 cells) was −1.68.
